In PMC5483892 (Journal of Medicinal Chemistry, 2017):

Target: ATX (full length human β form with a C-terminal 6-His tag) (Homo sapiens, UniProt Q13822)
Type: biochemical
Conditions: for LE (ligand efficiency): LE = −RTpKi/nb heavy atoms; for LE (ligand efficiency) / LLE (lipophilic ligand efficiency): from concentration response pIC50; for LLE (lipophilic ligand efficiency): LLE = pIC50 – cLogP; for affinities within fold of each other: BAL hits 16, 19 and 22 compared with each other

| Compound | LE (ligand efficiency) | LLE (lipophilic ligand efficiency) | affinities within fold of each other | increase in potency (relative to phenyl boronic acid 14) | more potent than 18 (relative to 18) |
| --- | --- | --- | --- | --- | --- |
| COc1ccccc1B(O)O [Compound 15] | 0.67 | 3.8 | – | – | – |
| N#Cc1cccc(B(O)O)c1 [Compound 26] | 0.58 | – | – | – | – |
| N#Cc1ccc(B(O)O)cc1 [Compound 21] | 0.66 | – | – | – | – |
| OB(O)c1cccc(O)c1 [Compound 5] | 0.68 | 3.7 | – | – | – |
| OB(O)c1ccc2nonc2c1 [Compound 3] | 0.57 | 3.8 | – | – | – |
| OB(O)c1ccccc1 [Compound 14, phenyl boronic acid] | 0.76 | 3.7 | – | – | – |
| NCc1cccc(O)c1 [Compound 6] | 0.44 | 2.8 | – | – | – |
| Oc1ccc2nonc2c1 [Compound 4] | 0.50 | 3.5 | – | – | – |
| COc1cccc(B(O)O)c1 [Compound 17] | 0.58 | 2.9 | – | – | – |
| OB(O)c1ccc(O)cc1 [Compound 9] | 0.68 | 3.7 | – | – | – |
| OCc1cccc(B(O)O)c1 [Compound 18] | – | 3.6 | – | – | – |
| Oc1ccc(-n2ccnc2)cc1 [Compound 10] | 0.37 | 2.5 | – | – | – |
| Nc1cccc(-c2nnc[nH]2)c1 [Compound 8] | 0.41 | 3.4 | – | – | – |
| CS(=O)(=O)c1ccc(O)cc1 [Compound 12] | 0.40 | 2.9 | – | – | – |
| O=C(O)c1ccc2cc[nH]c2c1 [Compound 2] | 0.35 | 2.8 | – | – | – |
| COc1ccc(B(O)O)cc1 [Compound 13] | 0.66 | 3.6 | – | – | – |
| CS(=O)(=O)c1ccc(B(O)O)cc1 [Compound 11] | 0.55 | 4.9 | – | – | – |
| COc1cc(COc2ccc(B(O)O)cc2Cl)cc(OC)c1 [Compound 22] | 0.40 | 3.4 | ≤ 3 fold | – | – |
| OB(O)c1ccccc1OCc1cccc(Cl)c1 [Compound 16] | 0.45 | 3.5 | ≤ 3 fold | 10 fold | – |
| OB(O)c1ccc2cc[nH]c2c1 [Compound 1] | 0.65 | 4.4 | – | – | – |
| COCCc1ccc(OCc2cccc(B(O)O)c2)cc1 [Compound 19] | 0.41 | 3.3 | ≤ 3 fold | – | 25 fold |
